Source: patent publication US7785566B2, “Pharmaceutical compounds” (GE Healthcare, Inc., priority 2003, dated 2010)

Test system: ventricular extrasystoles after LAD artery occlusion
Assay: Antiarrythmic effect in a post myocardial infarction (MI) pig model (LAD ligation)
Format: in vivo
From the text: The pharmaceutical cPn216-[…]OH (X) was examined according to the following procedure:
A pig was anaestetised and put on artificial overpressure ventilation. Access to the heart was obtained by a midline sternotomy and removal of the anterior pericardium. The LAD artery was occluded by ligation above the 2nd branch and one of the collaterals was occluded as well. This caused development of frequent ventricular extrasystoles, known to proceed into ventricular tachycardia and fibrillation within minutes from previous experiments with the same type of preparation. […] An initial rise in mean blood pressure was noticed. Ventricular extrasystoles reappeared gradually after about 15 minutes and a new injection of 0.5 mg of the compound of formula (X) was given. […] The pig was then given a lethal dose of potassium chloride to terminate the experiment.
A similar set of observations was made in a second pig experiment.

[1] = pig, hour following second 0.5 mg injection

CCC(C)[C@H](NC(=O)[C@@H]1CCCN1C(=O)[C@H](Cc1cnc[nH]1)NC(=O)[C@@H](NC(=O)[C@H](Cc1ccc(O)cc1)NC(=O)[C@@H](NC(=O)[C@H](CCCNC(=N)N)NC(=O)CNCCC(CCNC(C)(C)/C(C)=N\O)CCNC(C)(C)/C(C)=N\O)C(C)C)C(C)CC)C(=O)O (some centres unmarked) [(X)]
Duration of QRS complexes (ECG before and after first injection) (pig, ECG recordings before and after the first injection): shortening
Heart rhythm after first intravenous injection (pig, LAD occluded, frequent ventricular extrasystoles, i.v. 0,5 mg, within few minutes): Complete stabilisation of the condition with return to sinus rhythm
Time until ventricular extrasystoles reappeared (pig, after first i.v. injection of 0,5 mg): about 15 minutes
Blood pressure during the following hour [1]: slightly reduced but adequate constant
Heart rhythm during the following hour [1]: stable sinus rhythm
Mean blood pressure after first injection (pig, i.v. 0,5 mg, first injection): initial rise
Heart rhythm after second injection (pig, new injection of 0.5 mg after reappearance of extrasystoles): stabilised with regular sinus rhythm
Overall anti-arrythmic activity in this preparation (post-MI pig preparation): act as an anti-arrythmic drug
